In test [1] the test system is cells in vitro. Particulars: cited from earlier work.
The subject of test [2] is human monocytic cell line THP-1. The test is described as follows: Cytokine production by THP-1 cells after peptide stimulation. The test is classed as cell-based. Conditions: for Cytokine production IL-1β / Cytokine production IL-8 / Cytokine production TNF-α: culture supernatant after 18 hours with peptide. Here is the method: (§1) For the assay, the human cells used were cultured at 1 million cells/ml in 96-well plates with the peptides in complete RPMI medium with 5% FBS. After culture for 18 hours at 37° C. and 5% CO2, the culture supernatants were measured for the cytokines generated by the cells with an Upstate multiplex cytokine kit.

The test system of test [3] is primary human peripheral blood mononuclear cells (hPBMC). Kind of test: Cytokine production by primary hPBMC after peptide stimulation. The test is classed as cell-based. How it is done: The possible combinations of sequences included PDCGLR, PDCGLK, PDCGMR, and PDCGMK. […] Therefore, the specific peptide sequence PDCGLR, which was identified as a bacterial signature found commonly in bacterial proteins but not in Drosophila, is recognised by the human immune system as a PAMP.
as §1

The mark [4] stands for this setting: hPBMC #1643, culture supernatant after 18 hours with peptide.

As for “ALTTE [5-mer peptide from a bacterial fimbriae protein]”, the “Induction of cytokine production from cells in vitro” value in test [1] is on record as “shown to induce cytokine production from cells in vitro”.
As to PDCGLK, in test [2], the “Cytokine production IL-1β” value came to 1.33 pg/mL, the “Cytokine production IL-8” value was determined as 24.29 pg/mL and the “Cytokine production TNF-α” value is <1 pg/mL.
For the substance PDCGLR, in test [2], the “Adjuvant activity, as measured by the specific production of cytokines (IL1-β, IL-8 and TNFα)” value was “adjuvant activity was observed”; the “Cytokine production IL-1β” value was 11.32 pg/mL; the “Cytokine production IL-8” value was determined as 171.11 pg/mL; the “Cytokine production TNF-α” value came out at 4.42 pg/mL. In addition, in test [3] (hPBMC), the “Cytokine production (IL-6 and TNFα)” value was “cytokine production (IL-6 and TNFα) was also demonstrated”. In addition, in test [3] (setting [4]), the “Cytokine production IL-6” value was determined as 31.42 pg/mL and the “Cytokine production TNF-α” value came out at 3.6 pg/mL.
As for PDCGMR, in test [2], the “Cytokine production IL-1β” value came to 1.61 pg/mL, the “Cytokine production IL-8” value was 25.71 pg/mL and the “Cytokine production TNF-α” value was <1 pg/mL.
On the same counts, the results for PDCGMK are 1.59 pg/mL, 19.28 pg/mL and <1 pg/mL.

The values above are taken from patent publication US8165823B2, “Pamps, pathogen associated molecular patterns” (Novartis AG, priority 2005, dated 2012).
